Measured values from the NIST ThermoML archive (doi:10.1016/j.jct.2005.03.012).

Assay: excess molar enthalpy (molar enthalpy of mixing); xn = mol fraction of the nth substance listed
Settings: Liquid

CO [methanol] + O
Settings	excess molar enthalpy [kcal/mol]
425.1 K, 10000 kPa, x1 = 0.8	0.0323
468.38 K, 10000 kPa, x1 = 0.4	0.119
468.72 K, 8500 kPa, x1 = 0.4	0.115
469.1 K, 10000 kPa, x1 = 0.6	0.114
469.29 K, 5000 kPa, x1 = 0.4	0.104
469.31 K, 8500 kPa, x1 = 0.6	0.11
469.39 K, 5000 kPa, x1 = 0.3	0.0932
469.49 K, 5000 kPa, x1 = 0.5	0.104
469.5 K, 10000 kPa, x1 = 0.2	0.0801
469.66 K, 8500 kPa, x1 = 0.2	0.0793
469.81 K, 5000 kPa, x1 = 0.2	0.0717
469.91 K, 5000 kPa, x1 = 0.6	0.096
470.63 K, 5000 kPa, x1 = 0.7	0.0803
470.65 K, 10000 kPa, x1 = 0.4	0.122
470.78 K, 10000 kPa, x1 = 0.6	0.115
470.8 K, 10000 kPa, x1 = 0.8	0.0707
471.01 K, 8500 kPa, x1 = 0.4	0.118
471.06 K, 8500 kPa, x1 = 0.8	0.0689
471.22 K, 5000 kPa, x1 = 0.1	0.0392
471.24 K, 5000 kPa, x1 = 0.4	0.104
471.34 K, 5000 kPa, x1 = 0.8	0.057
471.36 K, 5000 kPa, x1 = 0.5	0.104
471.45 K, 5000 kPa, x1 = 0.3	0.0941
471.49 K, 8500 kPa, x1 = 0.6	0.113
471.54 K, 8500 kPa, x1 = 0.2	0.0812
471.91 K, 5000 kPa, x1 = 0.6	0.0953
472.04 K, 5000 kPa, x1 = 0.7	0.0796
472.16 K, 10000 kPa, x1 = 0.8	0.0715
472.23 K, 5000 kPa, x1 = 0.9	0.0296
472.28 K, 5000 kPa, x1 = 0.8	0.0561
472.49 K, 10000 kPa, x1 = 0.2	0.0832
473.11 K, 5000 kPa, x1 = 0.2	0.0722
473.15 K, 5000 kPa, x1 = 0.1	0.0395
473.15 K, 5000 kPa, x1 = 0.2	0.0719
473.15 K, 5000 kPa, x1 = 0.3	0.0932
473.15 K, 5000 kPa, x1 = 0.4	0.103
473.15 K, 5000 kPa, x1 = 0.5	0.103
473.15 K, 5000 kPa, x1 = 0.6	0.095
473.15 K, 5000 kPa, x1 = 0.7	0.0788
473.15 K, 5000 kPa, x1 = 0.8	0.0555
473.15 K, 5000 kPa, x1 = 0.9	0.0298
473.15 K, 8500 kPa, x1 = 0.2	0.0818
473.15 K, 8500 kPa, x1 = 0.4	0.119
473.15 K, 8500 kPa, x1 = 0.6	0.113
473.15 K, 8500 kPa, x1 = 0.8	0.0696
473.15 K, 10000 kPa, x1 = 0.2	0.0827
473.15 K, 10000 kPa, x1 = 0.4	0.124
473.15 K, 10000 kPa, x1 = 0.6	0.117
473.15 K, 10000 kPa, x1 = 0.8	0.0735
473.17 K, 5000 kPa, x1 = 0.9	0.0285
473.36 K, 5000 kPa, x1 = 0.1	0.0397
473.78 K, 8500 kPa, x1 = 0.8	0.0702
474.92 K, 5000 kPa, x1 = 0.1	0.0401
474.92 K, 5000 kPa, x1 = 0.2	0.0721
474.92 K, 5000 kPa, x1 = 0.3	0.0937
474.92 K, 5000 kPa, x1 = 0.4	0.103
474.92 K, 5000 kPa, x1 = 0.5	0.102
474.92 K, 5000 kPa, x1 = 0.6	0.0941
474.92 K, 5000 kPa, x1 = 0.7	0.0778
474.92 K, 5000 kPa, x1 = 0.8	0.0536
474.92 K, 5000 kPa, x1 = 0.9	0.0277
475.17 K, 10000 kPa, x1 = 0.2	0.0854
475.17 K, 10000 kPa, x1 = 0.4	0.126
475.17 K, 10000 kPa, x1 = 0.6	0.118
475.17 K, 10000 kPa, x1 = 0.8	0.0755
475.47 K, 8500 kPa, x1 = 0.2	0.083
475.47 K, 8500 kPa, x1 = 0.4	0.121
475.47 K, 8500 kPa, x1 = 0.6	0.115
475.47 K, 8500 kPa, x1 = 0.8	0.0705
493.71 K, 10000 kPa, x1 = 0.4	0.128
494.59 K, 10000 kPa, x1 = 0.2	0.0893
494.68 K, 10000 kPa, x1 = 0.6	0.118
495.72 K, 10000 kPa, x1 = 0.4	0.125
496.09 K, 10000 kPa, x1 = 0.2	0.0884
496.33 K, 10000 kPa, x1 = 0.8	0.0702
497.18 K, 10000 kPa, x1 = 0.6	0.116
498.15 K, 8500 kPa, x1 = 0.1	0.0443
498.15 K, 8500 kPa, x1 = 0.2	0.0795
498.15 K, 8500 kPa, x1 = 0.3	0.0979
498.15 K, 8500 kPa, x1 = 0.4	0.106
498.15 K, 8500 kPa, x1 = 0.5	0.103
498.15 K, 8500 kPa, x1 = 0.6	0.0938
498.15 K, 8500 kPa, x1 = 0.7	0.0758
498.15 K, 8500 kPa, x1 = 0.8	0.0522
498.15 K, 8500 kPa, x1 = 0.9	0.0256
498.15 K, 10000 kPa, x1 = 0.2	0.0875
498.15 K, 10000 kPa, x1 = 0.4	0.124
498.15 K, 10000 kPa, x1 = 0.6	0.114
498.15 K, 10000 kPa, x1 = 0.8	0.0689
498.93 K, 10000 kPa, x1 = 0.8	0.0687
500.09 K, 8500 kPa, x1 = 0.1	0.0446
500.09 K, 8500 kPa, x1 = 0.2	0.0768
500.09 K, 8500 kPa, x1 = 0.3	0.0941
500.09 K, 8500 kPa, x1 = 0.4	0.101
500.09 K, 8500 kPa, x1 = 0.5	0.0978
500.09 K, 8500 kPa, x1 = 0.6	0.0868
500.09 K, 8500 kPa, x1 = 0.7	0.0683
500.09 K, 8500 kPa, x1 = 0.8	0.0466
500.09 K, 8500 kPa, x1 = 0.9	0.0222
500.24 K, 10000 kPa, x1 = 0.2	0.087
500.24 K, 10000 kPa, x1 = 0.4	0.122
500.24 K, 10000 kPa, x1 = 0.6	0.112
500.24 K, 10000 kPa, x1 = 0.8	0.0679
504.64 K, 10000 kPa, x1 = 0.4	0.111
